Test results published in ChEMBL document CHEMBL4842350, “Discovery of a Novel Bromodomain and Extra Terminal Domain (BET) Protein Inhibitor, I-BET282E, Suitable for Clinical Progression” (J Med Chem, 2021).
In brackets after ≈: the same amount, converted by molar mass.

What was measured:
[1] = target: T1, Bromodomain-containing protein 4 (Homo sapiens, UniProt O60885); test: Inhibition of BRD4 in human PBMC assessed as reduction in LPS-induced IL-6 secretion incubated for 18 to 24 hrs by MSD assay
[2] = target: Bromodomain-containing protein 4 (Homo sapiens, UniProt O60885, Y390A); test: Displacement of Alexa Fluor 647 labelled ligand from recombinant human N-terminal 6His-tagged BRD4-BD1 Y390A mutant (1 to 477 residue) expressed in Escherichia coli incubated for 30 mins by TR-FRET assay
Cytochrome P450 3A4 = Cytochrome P450 3A4 (Homo sapiens, UniProt P08684); test: Inhibition of recombinant human CYP3A4 expressed in Escherichia coli using VG as probe substrate incubated for 15 to 60 mins by fluorometric assay; type: ADME
[3] = target: T1, Bromodomain-containing protein 4; test: Inhibition of BRD4 in human whole blood assessed as reduction in LPS-induced IL-6 secretion preincubated for 30 mins followed by LPS stimulation and measured after 24 hrs by MSD assay; type: tissue-based
Cytochrome P450 2C9 = Cytochrome P450 2C9 (Homo sapiens, UniProt P11712)
Description: Inhibition of recombinant human CYP2C9 expressed in Escherichia coli using FCA as substrate incubated for 15 to 60 mins by fluorometric assay

[4] = dog, hepatocytes, 2 h, 0.5 µM
[5] = rat, hepatocytes, 2 h, 0.5 µM
[6] = human, hepatocytes, 2 h, 0.5 µM
physchem = conditions: FaSSIF, pH 6.5
Description: Solubility of the compound in FaSSIF at pH 6.5 measured after 30 mins by HPLC analysis

Cytochrome P450 2C9, sequence (P11712 whole entry): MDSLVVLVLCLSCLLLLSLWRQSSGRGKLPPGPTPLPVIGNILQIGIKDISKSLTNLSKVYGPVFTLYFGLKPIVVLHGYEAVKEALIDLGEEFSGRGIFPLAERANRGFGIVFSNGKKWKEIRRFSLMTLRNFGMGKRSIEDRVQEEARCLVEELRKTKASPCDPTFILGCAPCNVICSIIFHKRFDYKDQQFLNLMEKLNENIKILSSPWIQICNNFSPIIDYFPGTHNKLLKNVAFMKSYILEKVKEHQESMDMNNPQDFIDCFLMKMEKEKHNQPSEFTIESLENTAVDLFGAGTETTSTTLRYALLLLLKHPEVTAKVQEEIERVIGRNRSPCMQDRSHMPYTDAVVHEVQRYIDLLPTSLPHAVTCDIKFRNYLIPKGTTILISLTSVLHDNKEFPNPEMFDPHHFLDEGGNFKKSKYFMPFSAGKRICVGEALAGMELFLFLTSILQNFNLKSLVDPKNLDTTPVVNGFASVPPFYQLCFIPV
Cytochrome P450 3A4, sequence (P08684 whole entry): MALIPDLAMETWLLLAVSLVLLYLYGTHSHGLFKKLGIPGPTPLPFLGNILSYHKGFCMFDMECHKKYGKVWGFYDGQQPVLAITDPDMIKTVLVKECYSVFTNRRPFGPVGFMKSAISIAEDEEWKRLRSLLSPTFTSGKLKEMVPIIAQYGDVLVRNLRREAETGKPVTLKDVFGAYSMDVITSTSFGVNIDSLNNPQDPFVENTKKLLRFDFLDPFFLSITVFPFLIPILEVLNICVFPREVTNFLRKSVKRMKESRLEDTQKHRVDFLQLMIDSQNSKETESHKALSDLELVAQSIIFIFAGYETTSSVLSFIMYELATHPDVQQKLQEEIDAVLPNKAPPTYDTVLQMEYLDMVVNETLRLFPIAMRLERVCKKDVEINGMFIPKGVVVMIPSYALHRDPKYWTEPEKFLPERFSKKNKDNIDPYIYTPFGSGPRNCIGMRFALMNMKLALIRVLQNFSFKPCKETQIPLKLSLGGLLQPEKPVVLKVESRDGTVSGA

IC50 [1] [µM]	IC50 [2] [µM]	SMILES	also measured
0.2	0.158	COc1cc2c(cc1-c1c(C)noc1C)ncc1[nH]c(=O)n(C(C)C3CCOCC3)c12 (racemic)	–
0.126	0.0251	CCCc1nc2cnc3cc(-c4c(C)noc4C)c(OC)cc3c2n1Cc1ccccn1	–
1.58	1.58	COc1cc2c(cc1-c1c(C)noc1C)ncc1[nH]c(=O)n(C3CCOCC3)c12	–
1.26	0.251	COc1cc2c(cc1-c1c(C)noc1C)ncc1[nH]c(=O)n(CC3CCCOC3)c12 (racemic)	–
15.8	2	COc1cc2c(cc1-c1c(C)noc1C)ncc1[nH]c(=O)n(C3CCNCC3)c12	–
1.58	0.631	COCC(C)n1c(=O)[nH]c2cnc3cc(-c4c(C)noc4C)c(OC)cc3c21 (racemic)	–
0.631	0.2	COCc1nc2cnc3cc(-c4c(C)noc4C)c(OC)cc3c2n1C(C)COC (racemic)	–
0.501	0.158	COc1cc2c(cc1-c1c(C)noc1C)ncc1[nH]c(=O)n(Cc3ccccn3)c12	–
0.0398	0.0316	COc1cc2c(cc1-c1c(C)noc1C)ncc1nc(N(C)C)n(CC3CCOCC3)c12	IC50 (Cytochrome P450 3A4): 10 µM; IC50 [3]: 0.251 µM; IC50 (Cytochrome P450 2C9): 1.3 µM
0.398	0.631	COc1cc2c(cc1-c1c(C)noc1C)ncc1[nH]c(=O)n(CC3CC3)c12	–
0.158	0.0398	COc1cc2c(cc1-c1c(C)noc1C)ncc1nc(N)n(Cc3ccccn3)c12	–
3.98	0.631	COc1cc2c(cc1-c1c(C)noc1C)ncc1[nH]c(=O)n(CC3CCOC3)c12 (racemic)	–
0.251	0.0631	COc1cc2c(cc1-c1c(C)noc1C)ncc1nc(C3CCOCC3)n(Cc3ccccn3)c12	–
0.398	0.0631	COCc1nc2cnc3cc(-c4c(C)noc4C)c(OC)cc3c2n1Cc1ccccn1	–
0.0251	0.0398	COc1cc2c(cc1-c1c(C)noc1C)ncc1nc(N3CCOCC3)n(CC3CCOCC3)c12	IC50 [3]: 0.251 µM
–	–	CCNC(=O)C[C@@H]1N=C(c2ccc(Cl)cc2)c2cc(OC)ccc2-n2c(C)nnc21 [MOLIBRESIB]	CLint [4]: < 1.7 mL/min/g liver; CLint [5]: < 0.86 mL/min/g liver; CLint [6]: < 0.86 mL/min/g liver
1.58	0.794	COc1cc2c(cc1-c1c(C)noc1C)ncc1[nH]c(=O)n(CCN(C)C)c12	–

IC50 [1] [µM]	IC50 [2] [µM]	SMILES	also measured
0.158	0.0316	CCc1nc2cnc3cc(-c4c(C)noc4C)c(OC)cc3c2n1Cc1ccccn1	–
3.16	1.26	COc1cc2c(cc1-c1c(C)noc1C)ncc1[nH]c(=O)n(C(C)C)c12	–
3.16	1.26	COc1cc2c(cc1-c1c(C)noc1C)ncc1[nH]c(=O)n(CC3CCN(C)CC3)c12	–
0.316	0.126	COc1cc2c(cc1-c1c(C)noc1C)ncc1nc(C3CCOCC3)n(CC3CC3)c12	IC50 [3]: 2 µM
0.398	0.0794	COCc1nc2cnc3cc(-c4c(C)noc4C)c(OC)cc3c2n1CC1CCOCC1	–
–	–	COc1cc2c(cc1-c1c(C)noc1C)ncc1[nH]c(=O)n([C@H](C)c3ccccn3)c12	CLint [4]: 9.8 mL/min/g liver; CLint [5]: < 0.86 mL/min/g liver; solubility at 0.5 h (physchem): 66 µg/mL (≈ 159 µM); CLint [6]: < 0.86 mL/min/g liver
0.0251	0.0126	COCCNc1nc2cnc3cc(-c4c(C)noc4C)c(OC)cc3c2n1[C@H](C)c1ccccn1	IC50 (Cytochrome P450 3A4): 7.9 µM; IC50 [3]: 0.158 µM; IC50 (Cytochrome P450 2C9): 7.9 µM
0.158	0.0398	COc1cc2c(cc1-c1c(C)noc1C)ncc1nc(C(C)C)n(Cc3ccccn3)c12	–
0.126	0.126	CCCC(C)n1c(=O)[nH]c2cnc3cc(-c4c(C)noc4C)c(OC)cc3c21 (stereo not drawn)	–
1	0.794	COc1cc2c(cc1-c1c(C)noc1C)ncc1[nH]c(=O)n(CC(C)C)c12	–
0.501	0.158	COC[C@H](C)n1c(C2CCOCC2)nc2cnc3cc(-c4c(C)noc4C)c(OC)cc3c21	IC50 [3]: 0.316 µM
0.1	0.0316	COc1cc2c(cc1-c1c(C)noc1C)ncc1nc(C3CCOCC3)n(C(C)C3CCOCC3)c12 (stereo not drawn)	IC50 [3]: 0.2 µM
0.1	0.0316	COCCNc1nc2cnc3cc(-c4c(C)noc4C)c(OC)cc3c2n1Cc1ccccn1	IC50 (Cytochrome P450 3A4): 15.8 µM; IC50 [3]: 0.398 µM; IC50 (Cytochrome P450 2C9): 31.6 µM
0.126	0.1	COCC(C)n1c(C2CCOCC2)nc2cnc3cc(-c4c(C)noc4C)c(OC)cc3c21 (racemic)	IC50 [3]: 0.398 µM
0.0398	0.0398	COc1cc2c(cc1-c1c(C)noc1C)ncc1nc(C)n(Cc3ccccn3)c12	–
0.2	0.1	COc1cc2c(cc1-c1c(C)noc1C)ncc1[nH]c(=O)n(CC3CCOCC3)c12	–
